Reference: US7648999B2, “Activator for peroxisome proliferator-activated receptor δ” (Nippon Chemiphar Co., Ltd., priority 2007, dated 2010)

Legend:
PPARδ (GAL4-hPPARδ LBD) = target: T1, PPARδ (GAL4-hPPARδ LBD) (Homo sapiens, UniProt Q03181); test: PPARδ transactivation activity (GAL4 chimera luciferase reporter in CV-1 cells); format: cell-based
T1 construct: A chimeric receptor expression plasmid (GAL4-hPPARδ LBD), a reporter plasmid (UASx4-TK-LUC); expressed in transfected cells; host or cells: CV-1 cells
T1 sequence (Q03181 211-439 limits assumed): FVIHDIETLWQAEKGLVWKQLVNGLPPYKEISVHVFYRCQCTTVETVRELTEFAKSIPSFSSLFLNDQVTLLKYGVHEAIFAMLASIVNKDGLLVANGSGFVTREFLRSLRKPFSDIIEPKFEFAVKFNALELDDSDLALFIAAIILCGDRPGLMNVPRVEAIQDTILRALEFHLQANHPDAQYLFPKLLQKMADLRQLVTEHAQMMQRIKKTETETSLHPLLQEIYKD
Experimental: A chimeric receptor expression plasmid (GAL4-hPPARδ LBD), a reporter plasmid (UASx4-TK-LUC) and β-galactosidase (β-GAL) are transfected into CV-1 cells by utilizing a lipofection reagent DMRIE-C (Life Technologies).
(1) Measurement of PPARα, γ, δ Transactivation Activity
CV-1 cells were obtained from Tohoku University Aging Medical Laboratory, Medical Cell Collection Center. All test compounds were dissolved in dimethylsulfoxide (DMSO). Final concentration of DMSO was 0.1%.
CV-1 cells were seeded in 24 well culture plates at 2×10^5 cells per well, and cultured for 24 hours OPTI-MEM I Reduced Serum Medium (Life Technologies, 500 μL/well) containing 4%-fetal bovine serum (FBS). After washing with OPTI-MEM, transfection mixture (250 μL/well) containing 0.03 μg of GAL4-hPPARδ LBD, 0.25 μg of UASx-4-TK-LUC, 0.35 μg of βGAL, and 2 μL of lipofection reagent, DMRIE-C (Life Technologies) were added. The cells were incubated for 5 hours at 37° C.
The cells were washed and incubated for 40 hours in the presence of the test compound (final concentration was 10^−7M or 10^−6M)
The culture medium was removed and the cells were washed with PBS twice. A solubilizing buffer (100 μL/well) containing 25 mM Tris-PO4 (pH 7.8), 15% v/v glycerol, 2% CHAPS, 1% Lecithin, 1% BSA, 4 mM EGTA (pH 8.0), 8 mM MgCl2, 1 mM DTT was added. After the incubation for 10 minutes at room temperature, a portion (20 μL) of the solution was transferred into a 96-well plate. Subsequently, 100 μL of luciferase substrate solution (Piccagene: available from Nippon Gene Co., Ltd.) was added, and a luminous intensity per one second (luciferase activity) was measured using a microluminoreader (Type MLR-100, Corona Electrics Co., Ltd.). Each luciferase activity was corrected by the transfection efficiency which was calculated from β-galactosidase activity. The assay method of β-galactosidase activity was as follows: A portion (50 μL) of the solubilized sample was transferred into another 96-well plate; 100 μL of ONPG (2-nitrophenyl-β-galactopyranoside) solution was added and incubated for 5 minutes at room temperature. 50 μL of a reaction stopping solution (1M sodium carbonate solution) was added. Then the absorbance at 414 nm was measured.

PPARγ (GAL4-hPPARγ LBD) = target: T2, PPARγ (GAL4-hPPARγ LBD) (Homo sapiens, UniProt P37231); test: PPARγ transactivation activity (GAL4 chimera luciferase reporter in CV-1 cells); format: cell-based
T2 construct: Receptor expression plasmid (GAL4-hPPARα, LBD GAL4-hPPARγ LBD, GAL4-hPPARδ LBD); expressed in transfected cells; host or cells: CV-1 cells
T2 sequence (P37231 238-503 limits assumed): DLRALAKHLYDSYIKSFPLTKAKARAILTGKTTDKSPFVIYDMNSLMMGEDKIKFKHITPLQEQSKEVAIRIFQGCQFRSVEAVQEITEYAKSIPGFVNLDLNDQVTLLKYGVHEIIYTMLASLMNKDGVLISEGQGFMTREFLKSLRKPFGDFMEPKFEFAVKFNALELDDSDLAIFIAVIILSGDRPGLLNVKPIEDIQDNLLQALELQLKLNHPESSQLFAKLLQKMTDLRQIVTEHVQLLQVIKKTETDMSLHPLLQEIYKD

db/db mice = test: HDL cholesterol elevating effect in db/db mice; format: in vivo; conditions: for Ratio of increasing HDL cholesterol (% to control): 10 mg/kg/b.i.d. orally for one week, serum 16 hours after final administration; for HDL cholesterol elevating effect (in words): oral, one week twice daily
Experimental: HDL cholesterol elevating effect was measured by using db/db mice, which are hereditary obesity mice. The db/db mice (10 weeks old) were divided into groups based on serum HDL cholesterol levels. […] Mice of the control group (to which no agent was administered) were orally given 1% methyl cellulose solution. After 16 hours from the final administration, blood sample was collected, and serum HDL cholesterol level was measured. HDL cholesterol was separated by electrophoresis on agarose gels (Chol/Trig Combo, Helena Laboratories). […] HDL cholesterol levels were calculated from total cholesterol levels and HDL cholesterol/total cholesterol ratios.
Each value represents as % of the control group.

PPARα (GAL4-hPPARα LBD) = target: T3, PPARα (GAL4-hPPARα LBD) (Homo sapiens, UniProt Q07869); test: PPARα transactivation activity (GAL4 chimera luciferase reporter in CV-1 cells); format: cell-based
T3 construct: Receptor expression plasmid (GAL4-hPPARα, LBD GAL4-hPPARγ LBD, GAL4-hPPARδ LBD); expressed in transfected cells; host or cells: CV-1 cells
T3 sequence (Q07869 239-466 limits assumed): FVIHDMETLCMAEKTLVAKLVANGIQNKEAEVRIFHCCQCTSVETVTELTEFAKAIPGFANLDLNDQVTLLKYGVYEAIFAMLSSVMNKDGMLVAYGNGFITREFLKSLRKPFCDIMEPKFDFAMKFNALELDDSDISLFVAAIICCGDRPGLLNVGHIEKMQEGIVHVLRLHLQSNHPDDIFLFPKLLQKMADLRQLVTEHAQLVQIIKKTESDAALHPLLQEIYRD

[1] = compound at 10^−7 M (value without parentheses)
[2] = compound at 10^−6 M (value in parentheses)

SMILES: Cc1cc(C(=O)CCc2sc(-c3ccc(C(F)(F)F)cc3)nc2C(C)C)ccc1OC(C)(C)C(=O)O [Example 4, 2-[4-[3-[2-(4-Trifluoromethyl)phenyl-4-isopropyl-5-thiazolyl]propionyl]-2-methylphenoxy]-2-methylpropionic acid]
- Relative activity for PPAR transactivation, δ (PPARδ (GAL4-hPPARδ LBD); compound at 10^−7 M, CV-1 cells, 40 hours, positive control 10^−4 M L-165041 = 100%): 86 % of control
- Relative activity for PPAR transactivation, γ (PPARγ (GAL4-hPPARγ LBD); compound at 10^−7 M, CV-1 cells, 40 hours, positive control 10^−5 M Rosiglitazone = 100%): 12 % of control
- Ratio of increasing HDL cholesterol (% to control) (db/db mice): 176 % to control
- HDL cholesterol elevating effect (in words) (db/db mice): excellent effect of increasing HDL cholesterol
- Relative activity for PPAR transactivation, α (PPARα (GAL4-hPPARα LBD); compound at 10^−7 M, CV-1 cells, 40 hours, positive control 10^−4 M WY-14643 = 100%): 11 % of control

SMILES: Cc1cc(C=CCc2sc(-c3ccc(C(F)(F)F)cc3)nc2C(C)C)ccc1OCC(=O)O [Example 10, [4-[3-[4-Isopropyl-2-(4-trifluoromethyl)phenyl-5-thiazolyl]-1-propenyl]-2-methylphenoxy]acetic acid]
- Relative activity for PPAR transactivation, δ (PPARδ (GAL4-hPPARδ LBD); [1]): 67 % of control
- Relative activity for PPAR transactivation, γ (PPARγ (GAL4-hPPARγ LBD); [1]): 1 % of control
- Ratio of increasing HDL cholesterol (% to control) (db/db mice): 134 % to control
- HDL cholesterol elevating effect (in words) (db/db mice): excellent effect of increasing HDL cholesterol
- Relative activity for PPAR transactivation, α (PPARα (GAL4-hPPARα LBD); [1]): 0 % of control

SMILES: CC(C)c1nc(-c2ccc(C(F)(F)F)cc2)sc1CCC(=O)c1ccc(OC(C)(C)C(=O)O)c(Cl)c1 [Example 34, [4-[3-[2-(4-Trifluoromethyl)phenyl-4-isopropyl-5-thiazolyl]propionyl]-2-chlorophenoxy]-2-methylpropionic acid]
- Relative activity for PPAR transactivation, δ (PPARδ (GAL4-hPPARδ LBD); [1]): 66 % of control
- Relative activity for PPAR transactivation, γ (PPARγ (GAL4-hPPARγ LBD); [1]): 3 % of control
- Relative activity for PPAR transactivation, α (PPARα (GAL4-hPPARα LBD); [1]): 5 % of control

SMILES: Cc1cc(C(=O)CCc2nc(-c3ccc(C(F)(F)F)cc3)sc2C(C)C)ccc1OC(C)(C)C(=O)O [Example 38, 2-[4-[3-[5-Isopropyl-2-(4-trifluoromethyl)phenyl-4-thiazolyl]propionyl]-2-methylphenoxy]-2-methylpropionic acid]
- Relative activity for PPAR transactivation, δ (PPARδ (GAL4-hPPARδ LBD); [2]): (69) % of control
- Relative activity for PPAR transactivation, γ (PPARγ (GAL4-hPPARγ LBD); [2]): (9) % of control
- Relative activity for PPAR transactivation, α (PPARα (GAL4-hPPARα LBD); [2]): (3) % of control

SMILES: Cc1cc(C(=O)CCc2sc(-c3ccc(C(F)(F)F)cc3)nc2C(C)C)ccc1OC(C)C(=O)O (stereo not shown) [Example 43, 2-[4-[3-[4-Isopropyl-2-(4-trifluoromethyl)phenyl-5-thiazolyl]propionyl]-2-methylphenoxy]propionic acid]
- Relative activity for PPAR transactivation, δ (PPARδ (GAL4-hPPARδ LBD); [1]): 42 % of control
- Relative activity for PPAR transactivation, γ (PPARγ (GAL4-hPPARγ LBD); [1]): 5 % of control
- Relative activity for PPAR transactivation, α (PPARα (GAL4-hPPARα LBD); [1]): 3 % of control

SMILES: CCCCCCc1nc(-c2ccc(C(F)(F)F)cc2)sc1CC=Cc1ccc(OC(C)(C)C(=O)O)c(C)c1 [Example 45, 2-[4-[3-[4-Hexyl-2-(4-trifluoromethyl)phenyl-5-thiazolyl]-1-propenyl]-2-methylphenoxy]-2-methylpropionic acid]
- Relative activity for PPAR transactivation, δ (PPARδ (GAL4-hPPARδ LBD); [1]): 49 % of control
- Relative activity for PPAR transactivation, γ (PPARγ (GAL4-hPPARγ LBD); [1]): 20 % of control
- Relative activity for PPAR transactivation, α (PPARα (GAL4-hPPARα LBD); [1]): 90 % of control

SMILES: CCCCCCc1nc(-c2ccc(C(F)(F)F)cc2)sc1CCC(=O)c1ccc(C)c(OC(C)(C)C(=O)O)c1 [Example 46, 2-[5-[3-[4-Hexyl-2-(4-trifluoromethyl)phenyl-5-thiazolyl]propionyl]-2-methylphenoxy]-2-methylpropionic acid]
- Relative activity for PPAR transactivation, δ (PPARδ (GAL4-hPPARδ LBD); [2]): (46) % of control
- Relative activity for PPAR transactivation, γ (PPARγ (GAL4-hPPARγ LBD); [2]): (69) % of control
- Relative activity for PPAR transactivation, α (PPARα (GAL4-hPPARα LBD); [2]): (78) % of control

SMILES: CCc1nc(-c2ccc(C(F)(F)F)cc2)sc1CCC(=O)c1ccc(OCC(=O)O)c(C)c1 [Example 47, [4-[3-[4-Ethyl-2-(4-trifluoromethyl)phenyl-5-thiazolyl]propionyl]-2-methylphenoxy]acetic acid]
- Relative activity for PPAR transactivation, δ (PPARδ (GAL4-hPPARδ LBD); [1]): 57 % of control
- Relative activity for PPAR transactivation, γ (PPARγ (GAL4-hPPARγ LBD); [1]): 0 % of control
- Relative activity for PPAR transactivation, α (PPARα (GAL4-hPPARα LBD); [1]): 0 % of control

SMILES: CCc1nc(-c2ccc(C(F)(F)F)cc2)sc1CCC(=O)c1ccc(OC(C)(C)C(=O)O)c(C)c1 [Example 48, 2-[4-[3-[4-Ethyl-2-(4-trifluoromethyl)phenyl-5-thiazolyl]propionyl]-2-methylphenoxy]-2-methylpropionic acid]
- Relative activity for PPAR transactivation, δ (PPARδ (GAL4-hPPARδ LBD); [2]): (51) % of control
- Relative activity for PPAR transactivation, γ (PPARγ (GAL4-hPPARγ LBD); [2]): (13) % of control
- Relative activity for PPAR transactivation, α (PPARα (GAL4-hPPARα LBD); [2]): (84) % of control
